Here are results for eleven molecules from patent US20240166627A1, “Terpyridinedione compound or salt thereof, and preparation method and application thereof” (SHENZHEN SALUBRIS PHARMACEUTICALS CO., LTD., priority 2021, published 2024).

SMILES strings stand for the structures. Converted amounts (≈) assume the structure as drawn.

The nature of data set [1]: Pharmacokinetic experiment in Beagle dogs (IV and PO). As to conditions: male, dog, plasma. It counts as in vivo. An excerpt:
Polyethylene glycol 400 (batch number: GORKREUT, Saen Chemical Technology (Shanghai) Co., Ltd.); DMSO (batch number: 20200319, GHTECH (Guangdong) Co., Ltd.); and normal saline (batch number: C20052604, Jiangxi Kelun Pharmaceutical Co., Ltd.). An LC-MS instrument (Thermo Fisher Ultimate 3000 UPLC, TSQ QUANTUM ULTRA TSQ Quantum GC).
5 male Beagle dogs with weights being 5 kg to 7 kg, purchased from Beijing Mars Biotechnology Co., Ltd. […]
After the above mixture is given to the dogs through intragastric administration (n=3) or intravenous administration (n=2), about 1 mL of blood is collected from the forelimb or hindlimb vein with a scalp needle, respectively, at 5 min (intravenous administration only), 15 min, 30 min, 1 h, 2 h, 4 h, 6 h, 8 h, 24 h to put into blood collection tubes containing EDTA-K2 anticoagulant; centrifugation is performed for 10 min at 4000 rpm to separate plasma; and then the tubes are stored at −80° C. for testing.
A certain amount of a test sample is accurately weighted and dissolved with DMSO to 2 mg/mL, as a stock solution. The stock solution is diluted to 30000, 10000, 3000, 1000, 300, 100, 50, 30, and 10 ng/mL by using acetonitrile:water (1:1), to obtain standard curve working solutions. 5 μL of the working solution is added to 45 μL of blank canine plasma; and well mixing is performed through vortex, to prepare into standard curve samples equivalent to plasma concentrations of 3000, 1000, 300, 100, 30, 10, 5, 3, and 1 ng/mL. 30 μL of the standard curve sample and the collected plasma sample (plasma collected at 5 min, 15 min, and 30 min of intravenous administration is diluted 5-fold) are added to 150 μL of a propranolol acetonitrile solution (internal standard, 50 ng/mL) to precipitate protein, then 100 μL of water is added to well mix through vortex; centrifugation is performed for 5 min at 4000 rpm; and supernatant is taken for LC-MS analysis. LC-MS detection conditions include the following.
Chromatographic column: Waters ACQUITY™ PREMIER HSS T3, 50*2.1 mm, 1.8 μm.
Mobile phase A: water (0.1% formic acid); mobile phase B: acetonitrile; flow rate: 0.5 mL/min; and gradient elution is shown in Table 3 below.
After LC-MS detection of blood drug concentration, and a non-compartment model of WinNonlin 6.1 software is adopted to calculate pharmacokinetic parameters of beagle dogs after administration.

The target of another data set is p38α/MK2 complex (Homo sapiens, UniProt P49137+Q16539). Description: p38α/MK2 complex kinase screening experiment (IMAP FP). It counts as biochemical. As to conditions: p38α 0.2 nM, MK2 unactive 1 nM, HSP27 substrate 1 μM, ATP 10 μM; read-out: IC50 value that the compound inhibits p38α/MK2 complex. The method, then:
A certain amount of a drug is weighted and prepared into a 10 mM of mother solution by using DMSO; the mother solution is diluted to 100 μM (100× working solution) in two steps; and then, the solution is diluted 3-fold to 33.33 μM, 11.11 μM, 3.70 μM, 1.23 μM, 0.41 μM, 0.14 μM, 0.046 μM, 0.015 μM, and 0.005 μM, successively. DMSO control is also arranged.
Then, a series of diluted DMSO drugs are diluted 25 folds with 1×IMAP Reaction Buffer as a 4× drug working solution.
10 gradient concentrations and 2 duplicated wells are set to each group of compounds; and a DMSO control group and a negative control group (DMSO, no ATP) are additionally set.
• c), after 1 h of incubation at room temperature, 1× Progressive Binding Solution is added to end the enzymatic reaction; after 30 min of incubation, a BMGPHERASTER FSX multifunctional microplate reader is used to detect a Fluorescence Polarization (FP) signal [FP(Ex485/Em520/Em520 nm)].

The test system of data set [2] is production of TNFα in U937. Description: Releasing TNFα from U937 induced by LPS. It counts as cell-based. The conditions noted are these: Homo sapiens, U-937; PMA-differentiated U937, LPS 100 ng/ml, 4 h; read-out: IC50 value that the compound inhibits the production of TNFα. An excerpt:
Cytokine regulation in human monocytes has shown that the p38 pathway is the key to the biosynthesis of a plurality of pro-inflammatory cytokines including TNFα, IL-1β and IL-6. Therefore, the inhibition of the p38 MAPK pathway is to reduce inflammatory response by reducing the biosynthesis of the pro-inflammatory cytokines. […] This is a reflection of the effect of the compound in the present invention to facilitate reduction of inflammation, which is useful in the treatment of various diseases, including chronic inflammatory diseases, acute inflammatory diseases, or self-inflammatory diseases. The potency and efficacy of the p38 inhibitor in blocking cytokine production are evaluated using a human U937 cell line.
A 1640 medium with an article number being A10491-01, Gibco; penicillin-streptomycin with an article number being 15140-122, Gibco; fetal bovine serum with an article number being 10099-141C, Gibco; PBS with an article number being 10010-031, Gibco; LPS with an article number being L2880, Sigma; PMA with an article number being P1585, Sigma; dimethyl sulfoxide with an article number being D8418-1L, Sigma; and a TNFα kit with an article number being K151QWD-4, MSD.
A 96-well plate with an article number being 3599, Corning; a plate-vibrating device with an article number being QB-9002, QILINBEIER; a centrifuge with an article number being 5810R, Eppendorf; a carbon dioxide incubator with an article number being 371, Thermo; a counter with an article number being C10281, Gibco; a microscope with an article number being CKX41, OLYMPUS; and an MSD plate reader with an article number being 1201 MESO SECTOR 600, MSD.
U937, ATCC with an article number being CRL-1593.2.
About 2 mg of a drug is weighted; a mother solution is prepared to 10 mM (which is calculated by free alkali) by means of DMSO; and the mother solution is diluted 10-fold to 1 mM, and then is successively diluted 4-fold to 250 μM, 62.5 μM, 15.6 μM, 3.9 μM, 0.97 μM, 0.24 μM, and 0.061 μM. The above series of diluted DMSO drugs is diluted 20-fold as working solutions by using media.
At Day 0, 10000/well inoculation is performed, stimulation is performed for 48 h with 20 ng/ml of PMA, and culture is performed at 37° C., 5% CO2. • At Day 2, 1. Supernatant is removed from differentiated U937, cleaning is performed once with PBS, and 96 μl of the 1640 medium is added. • 2. 2 μl of the compound containing (DMSO with a final concentration being 0.1%), and culture is performed for 30 min at 37° C., 5% CO2. • 3. 2 μl of LPS (a final concentration being 100 ng/ml) is added, cells are stimulated, and culture is performed for 4 h at 37° C., 5% CO2. • 4. Centrifugation is performed, supernatant is taken, and content of TNFα in the supernatant is determined through ELISA.
The content of TNFα corresponding to each well is calculated by using a standard curve in the kit.
The compound IC50 is calculated by using a GraphPad nonlinear fitting formula, and for an experimental result, refer to Table 1.

Data set [3] can be described thus: Determination of solubility. It counts as physicochemical. The conditions noted are these: aqueous buffer, thermodynamic from solid, 37° C. 1 h. The protocol:
About 0.5 mg of a to-be-tested sample in a centrifuge tube is weighted, an appropriate amount of DMSO is added to completely dissolve the sample, and then methanol is added to make up to 1 ml.
(If there are more pH values to be investigated, the preparation method may be deduced by analogy).
3. The prepared control solution and test solution are simultaneously put into a 37° C. water bath and heated for 1 h, after 1 h, the solutions are taken out and cooled to room temperature, and then the solutions are filtered with a 0.22 μm filter membrane for sample injection.
4. The concentration of the sample in the test solution is calculated according to C=(A*(ms/vs))/AS, and experiment results are shown in Table 2.
Note: ms, vs and AS are the weight, volume and peak area of the sample in the control solution, respectively.
A is the peak area of the test solution.

Chain of p38α/MK2 complex (Q16539 whole entry): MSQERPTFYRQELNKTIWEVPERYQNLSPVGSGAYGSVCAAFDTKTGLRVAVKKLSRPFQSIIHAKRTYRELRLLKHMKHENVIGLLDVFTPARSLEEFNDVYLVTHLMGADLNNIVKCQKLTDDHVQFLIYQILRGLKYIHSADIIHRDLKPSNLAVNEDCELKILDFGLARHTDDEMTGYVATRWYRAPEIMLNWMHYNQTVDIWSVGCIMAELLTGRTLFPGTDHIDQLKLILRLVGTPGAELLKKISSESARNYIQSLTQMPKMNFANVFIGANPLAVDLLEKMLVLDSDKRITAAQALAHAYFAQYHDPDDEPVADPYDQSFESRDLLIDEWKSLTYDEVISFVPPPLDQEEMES
Chain of p38α/MK2 complex (P49137 whole entry): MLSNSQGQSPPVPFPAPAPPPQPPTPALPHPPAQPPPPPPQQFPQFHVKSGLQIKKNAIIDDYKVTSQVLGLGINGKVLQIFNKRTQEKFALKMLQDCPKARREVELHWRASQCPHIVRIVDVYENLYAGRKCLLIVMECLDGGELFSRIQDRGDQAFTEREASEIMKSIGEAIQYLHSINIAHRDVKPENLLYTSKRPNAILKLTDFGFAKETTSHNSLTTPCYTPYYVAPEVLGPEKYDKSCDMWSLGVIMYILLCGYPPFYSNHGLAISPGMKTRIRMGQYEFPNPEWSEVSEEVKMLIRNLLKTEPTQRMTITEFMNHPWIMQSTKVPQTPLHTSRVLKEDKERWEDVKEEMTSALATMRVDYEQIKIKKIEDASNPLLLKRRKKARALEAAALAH

In data set [1] (IV 1 mg/kg), `Cc1cnc(-n2cccc(C(C)(C)O)c2=O)cc1-n1c(C)cc(OCc2ncc(F)cc2F)c(Cl)c1=O` (racemic) [Embodiment 1, 3″-chloro-4″-((3,5-difluoropyridine-2-yl)methoxy)-3-(2-hydroxypropane-2-yl)-5′,6″-dimethyl-2H,2″H-[1,2′:4′,1″-terpyridine]-2,2″-diketone] yielded an exposure AUC(0-t) of 2870 ng·h/mL, a Cmax of 1510 ng/mL and a clearance of 6.15 mL/min/kg. In addition, the bioavailability in data set [1] (PO 5 mg/kg vs IV 1 mg/kg) worked out at 229%.
Regarding `CCC(C)(O)c1cccn(-c2cc(-n3c(C)cc(OCc4ncc(F)cc4F)c(Cl)c3=O)c(C)cn2)c1=O` (stereo not shown) [Embodiment 26, 3″-chloro-4″-((3,5-difluoropyridine-2-yl)methoxy)-3-(2-hydroxybutane-2-yl)-5′,6″-dimethyl-2H,2″H-[1,2′:4′,1″-terpyridine]-2,2″-diketone], the IC50 at p38α/MK2 complex was found to be 2.26 nM; in data set [2], 2.84 nM.
On to `Cc1cnc(-n2cccc(C(C)(C)O)c2=O)cc1-n1c(C)cc(OCc2ncccc2F)c(Cl)c1=O` [Embodiment 20, 3″-chloro-4″-((3-fluoropyridine-2-yl)methoxy)-3-(2-hydroxypropane-2-yl)-5′,6″-dimethyl-2H,2″H-[1,2′:4′,1″-terpyridine]-2,2″-diketone], for which, in data set [2], the IC50 turned out to be 6.86 nM. Further, the solubility at 1 h stood at 769 µg/mL (≈ 1500 µM) in data set [3] (pH = 2.0, PBS buffer) and 773 µg/mL (≈ 1510 µM) in data set [3] (pH = 7.4, PBS buffer).
Turning to `Cc1cnc(-n2cccc(C(C)(C)O)c2=O)cc1-n1c(C)cc(OCc2ccccn2)c(Cl)c1=O` [Embodiment 3], in data set [2], the IC50 was found to be 14.7 nM. The solubility at 1 h in data set [3] (pH = 2.0, PBS buffer) came out at 1290 µg/mL (≈ 2610 µM); in data set [3] (pH = 7.4, PBS buffer), 140 µg/mL (≈ 284 µM).
Regarding `Cc1cnc(-n2cccc(C(C)(C)O)c2=O)cc1-n1c(C)cc(OCc2ncc(F)cc2F)c(Cl)c1=O` (single isomer, unassigned) [Comparative example 1A, reference compound], on p38α/MK2 complex, the IC50 came out at 0.53 nM.
Consider `Cc1cnc(-n2cccc(C(C)(C)O)c2=O)cc1-n1c(C)cc(OCc2cccc(F)c2F)c(Cl)c1=O` [Embodiment 17, 3″-chloro-4″-((2,3-difluorobenzyl)oxy)-3-(2-hydroxypropane-2-yl)-5′,6″-dimethyl-2H,2″H-[1,2′:4′,1″-terpyridine]-2,2″-diketone], for which the IC50 at p38α/MK2 complex was found to be 1.33 nM; in data set [2] it was 1.73 nM.
Consider `Cc1cnc(-n2cccc(C3CCOCC3)c2=O)cc1-n1c(C)cc(OCc2ncc(F)cc2F)c(Cl)c1=O` [Embodiment 40, 3″-chloro-4″-((3,5-difluoropyridine-2-yl)methoxy)-5′,6″-dimethyl-3-(tetrahydro-2H-pyran-4-yl)-2H, 2″H-[1,2′:4′,1″-terpyridine]-2,2″-diketone], for which, on p38α/MK2 complex, the IC50 was 2.85 nM.
Regarding `Cc1cnc(-n2cccc(C(C)(C)O)c2=O)cc1-n1c(C)cc(OCc2ncc(F)cc2F)cc1=O` [Embodiment 2, 4″-((3,5-difluoropyridine-2-yl)methoxy)-3-(2-hydroxypropane-2-yl)-5′,6″-dimethyl-2H,2″H-[1,2′:4′,1″-terpyridine]-2,2″-diketone], the solubility at 1 h in data set [3] (pH = 2.0, PBS buffer) worked out at 192 µg/mL (≈ 388 µM); in data set [3] (pH = 7.4, PBS buffer) it was 234 µg/mL (≈ 474 µM).
For the molecule `Cc1cnc(-n2cccc(C(C)(C)O)c2=O)cc1-n1c(C)cc(OCc2ncc(Br)cc2F)c(Cl)c1=O` [Embodiment 16, 3″-chloro-4″-((3-fluoro-5-bromopyridine-2-yl)methoxy)-3-(2-hydroxypropane-2-yl)-5′,6″-dimethyl-2H,2″H-[1,2′:4′,1″-terpyridine]-2,2″-diketone], the IC50 was 3.35 nM on p38α/MK2 complex and 3.31 nM in data set [2].
As for `CCc1cnc(-n2cccc(C(C)(C)O)c2=O)cc1-n1c(C)cc(OCc2ncc(F)cc2F)c(Cl)c1=O` [Embodiment 42, 3″-chloro-5′-ethyl-4″-((3,5-difluoropyridine-2-yl)methoxy)-3-(2-hydroxypropane-2-yl)-6″-methyl-2H,2″H-[1,2′:4′,1″-terpyridine]-2,2″-diketone], the IC50 at p38α/MK2 complex was 3.14 nM.
For the molecule `Cc1cnc(-n2cccc(C(C)(C)O)c2=O)cc1-n1c(C)cc(OCc2ncc(F)cc2F)c(Br)c1=O` [Embodiment 41, 3″-bromo-4″-((3,5-difluoropyridine-2-yl)methoxy)-3-(2-hydroxypropane-2-yl)-5′,6″-dimethyl-2H,2″H-[1,2′:4′,1″-terpyridine]-2,2″-diketone], at p38α/MK2 complex, the IC50 was 1.58 nM.

Usually AUC(0-t) stands for exposure summed from dosing to a finite time, without extrapolation to infinity. Read a low AUC(0-t) as low exposure. One may read the Cmax as the peak of the concentration-time curve. As usually defined, the solubility is the dissolved amount per volume that the medium holds. Lower therefore signals a poorly soluble substance.
